Source: BindingDB's records for doi:10.7270/Q23T9FMP (The Scripps Research Institute Molecular Screening Center, 2007)

What follows are compounds tested against Steroidogenic factor 1 (Homo sapiens, UniProt Q13285) (assay: SF-1 activators, concentration-response, dose response, cell-based, CHO-K1, Gal4-SF-1 LBD, luciferase luminescence (AID 692)).
Sequence of Steroidogenic factor 1 (Q13285 whole entry, the tested form may be a part): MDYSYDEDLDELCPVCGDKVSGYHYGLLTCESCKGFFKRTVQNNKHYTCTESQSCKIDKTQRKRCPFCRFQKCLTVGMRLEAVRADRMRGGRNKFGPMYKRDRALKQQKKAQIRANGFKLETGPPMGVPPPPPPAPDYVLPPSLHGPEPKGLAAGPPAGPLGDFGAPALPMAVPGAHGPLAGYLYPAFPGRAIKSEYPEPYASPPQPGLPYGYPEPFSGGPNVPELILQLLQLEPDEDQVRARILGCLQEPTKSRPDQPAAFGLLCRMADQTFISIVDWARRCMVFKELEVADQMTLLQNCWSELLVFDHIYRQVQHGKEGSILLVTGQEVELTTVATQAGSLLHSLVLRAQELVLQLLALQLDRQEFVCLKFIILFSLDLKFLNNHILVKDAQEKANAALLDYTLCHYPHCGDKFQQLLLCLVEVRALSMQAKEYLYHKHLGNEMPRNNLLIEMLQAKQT
`Cc1csc2nc(CSc3nc4ccccc4o3)cn12` [2-[(3-methyl-6-imidazo[2,1-b]thiazolyl)methylthio]-1,3-benzoxazole] was tested, and the EC50 was over 3670 nM.
`O=C(COc1ncnc2ccccc12)c1ccc2c(c1)OCCO2` [1-(2,3-dihydro-1,4-benzodioxin-6-yl)-2-(4-quinazolinyloxy)ethanone] gave an EC50 of 396 nM.
Work on `COc1ccc(CNc2ccc(C(=O)O)cc2)cc1` [4-(p-anisylamino)benzoic acid] yielded an EC50 of 1840 nM.
Compound `CC(=O)Nc1ccc(-c2cc3ccccc3o2)cc1` [MLS000036584] has an EC50 of 444 nM.
In the case of `COCC(C)NC(=O)c1noc2c1CCc1cc(OC)ccc1-2` (configuration not stated) [7-methoxy-N-(1-methoxypropan-2-yl)-4,5-dihydrobenzo[g][1,2]benzoxazole-3-carboxamide], the EC50 is reported as over 1220 nM.
Compound `COc1ccc(CNC(=O)NC2CCCCC2)cc1` [1-cyclohexyl-3-[(4-methoxyphenyl)methyl]urea] has an EC50 of over 11000 nM.
With `CS(=O)(=O)c1ccc2nc(NC(=O)C3COc4ccccc4O3)sc2c1` (configuration not stated) [MLS000056123] the EC50 was 7740 nM.
`Nc1c(C(=O)NCc2ccco2)nnn1-c1ccccc1` [5-amino-N-(2-furanylmethyl)-1-phenyl-4-triazolecarboxamide] showed an EC50 of 2670 nM.
Compound `Cn1c(-c2ccc3c(c2)OCO3)cnc1NCc1ccccc1` [(5-Benzo[1,3]dioxol-5-yl-1-methyl-1H-imidazol-2-yl)-benzyl-amine] has an EC50 of over 11000 nM.
`COc1ccc2nc3sc(C(=O)NCc4cccs4)c(N)c3cc2c1` [3-Amino-6-methoxy-thieno[2,3-b]quinoline-2-carboxylic acid (thiophen-2-ylmethyl)-amide] was tested, and the EC50 was 403 nM.
`CC(C)(CC(=O)O)Cc1nc(-c2ccc(Cl)cc2)no1` [4-[3-(4-chlorophenyl)-1,2,4-oxadiazol-5-yl]-3,3-dimethyl-butanoic acid] was tested, and the EC50 was over 11000 nM.
Compound `CC(C)(C)n1ncc2c(=O)n(CC(=O)NCc3ccccc3Cl)cnc21` [2-(1-tert-butyl-4-keto-pyrazolo[3,4-d]pyrimidin-5-yl)-N-(2-chlorobenzyl)acetamide] has an EC50 of 138 nM.
With `CCCc1cc(C(=O)Nc2ccccc2SC)no1` [MLS000116378] the EC50 was 4430 nM.
In the case of `O=C(CSc1ccccn1)c1ccc2c(c1)OCO2` [1-(1,3-benzodioxol-5-yl)-2-(2-pyridinylthio)ethanone], the EC50 is reported as 1160 nM.
`C=CCn1c(-c2ccccc2)c[nH]c1=S` [MLS000071728] showed an EC50 of 1220 nM.
`COCCn1c(C)cc(C(=O)COC(=O)C23CC4CC(CC(O)(C4)C2)C3)c1C` [[2-[1-(2-methoxyethyl)-2,5-dimethylpyrrol-3-yl]-2-oxoethyl] 3-hydroxyadamantane-1-carboxylate] was tested, and the EC50 was 813 nM.
`CCn1c(SCC(=O)c2cccs2)nnc1-c1ccco1` [2-(4-Ethyl-5-furan-2-yl-4H-[1,2,4]triazol-3-ylsulfanyl)-1-thiophen-2-yl-ethanone] was tested, and the EC50 was 9840 nM.
